≈ marks a conversion by molar mass, not a printed value. Blank lines part the entries; values can stand above or below the compound they belong to.
Tests used:
HeLa = assay: cells; type: functional, cell-based; conditions: Homo sapiens, 96 h
Description: Antiproliferative activity against human HeLa cells incubated for 96 hrs by crystal violet staining assay

physchem [1] = conditions: in vivo, pH 7.4
in vitro [2] = conditions: human, Caco-2
Description: Apparent permeability across apical to basolateral side in human Caco2 cells at 2 uM measured after 2 hrs by LC-MS/MS analysis

Beta-secretase 1 = Beta-secretase 1 (Homo sapiens, UniProt P56817); type: cell-based, HEK293
Description: Inhibition of BACE1 in HEK293 cells harboring APP assessed as reduction in amyloidbeta 40 level measured after 18 to 20 hrs by AlphaLISA Assay

physchem [3] = conditions: in vivo, pH 6.5
Dipeptidyl peptidase 4 = Dipeptidyl peptidase 4 (Homo sapiens, UniProt P27487)
Chain of Dipeptidyl peptidase 4 (P27487 whole entry): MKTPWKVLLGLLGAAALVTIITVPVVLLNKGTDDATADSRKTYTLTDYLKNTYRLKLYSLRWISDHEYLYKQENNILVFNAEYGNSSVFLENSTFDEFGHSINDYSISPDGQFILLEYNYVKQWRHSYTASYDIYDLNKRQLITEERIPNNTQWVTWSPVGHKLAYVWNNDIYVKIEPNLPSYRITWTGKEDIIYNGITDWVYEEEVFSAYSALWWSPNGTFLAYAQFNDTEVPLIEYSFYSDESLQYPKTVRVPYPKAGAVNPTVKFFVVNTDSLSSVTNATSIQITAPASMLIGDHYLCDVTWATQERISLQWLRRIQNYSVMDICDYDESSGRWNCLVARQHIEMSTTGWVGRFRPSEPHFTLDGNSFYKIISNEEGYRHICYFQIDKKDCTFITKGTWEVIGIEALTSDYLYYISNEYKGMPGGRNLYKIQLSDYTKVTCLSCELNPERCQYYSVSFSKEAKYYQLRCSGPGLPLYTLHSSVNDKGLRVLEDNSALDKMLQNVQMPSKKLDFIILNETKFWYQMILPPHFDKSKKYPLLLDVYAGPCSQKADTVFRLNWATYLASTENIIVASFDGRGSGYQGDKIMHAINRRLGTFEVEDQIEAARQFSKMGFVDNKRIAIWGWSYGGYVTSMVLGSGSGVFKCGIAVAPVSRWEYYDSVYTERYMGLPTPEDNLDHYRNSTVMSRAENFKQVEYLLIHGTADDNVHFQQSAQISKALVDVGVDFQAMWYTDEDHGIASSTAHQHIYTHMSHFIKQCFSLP
Description: Inhibition of human DPP4 expressed in baculovirus expression system using Gly-Pro-AMC as substrate by fluorometric assay

[4] = target: cGMP-specific 3',5'-cyclic phosphodiesterase (Homo sapiens, UniProt O76074); type: cell-based; conditions: platelet
Description: Inhibition of human platelets derived PDE5 using [3H]-cGMP as substrate incubated for 60 min by scintillation proximity assay

in vitro [5] = conditions: human, Caco-2; remark: listed apart in the source
Description: Efflux ratio of apparent permeability across basolateral to apical side over apical to basolateral side in human Caco2 cells

[6] = target: T1, Nuclear receptor ROR-gamma (Homo sapiens, UniProt P51449); type: cell-based, CD4+ve Th
T1 sequence (P51449 whole entry): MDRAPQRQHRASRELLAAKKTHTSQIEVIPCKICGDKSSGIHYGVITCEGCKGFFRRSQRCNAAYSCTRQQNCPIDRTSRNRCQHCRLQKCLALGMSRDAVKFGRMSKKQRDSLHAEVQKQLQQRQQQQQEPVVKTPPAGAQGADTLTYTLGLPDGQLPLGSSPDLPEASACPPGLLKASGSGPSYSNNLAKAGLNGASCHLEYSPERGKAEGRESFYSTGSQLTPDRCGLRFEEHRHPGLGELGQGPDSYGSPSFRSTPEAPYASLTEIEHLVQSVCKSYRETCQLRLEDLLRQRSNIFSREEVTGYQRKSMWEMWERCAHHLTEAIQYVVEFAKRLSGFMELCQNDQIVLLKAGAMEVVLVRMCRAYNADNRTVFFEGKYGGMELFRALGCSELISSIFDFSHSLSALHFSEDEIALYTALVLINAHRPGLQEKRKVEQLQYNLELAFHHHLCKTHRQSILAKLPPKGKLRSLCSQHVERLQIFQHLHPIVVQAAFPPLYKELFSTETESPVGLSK
Description: Inverse agonist activity at RORgammat in human CD4-positive T cells assessed as reduction in Th17 level incubated for 5 days by MSD electrochemiluminescent cytokine assay

MCF7 = assay: cells; type: functional, cell-based; conditions: Homo sapiens, MCF7, 96 h
Description: Antiproliferative activity against human MCF7 cells incubated for 4 days by crystal violet staining based assay

Carbonic anhydrase 2 = Carbonic anhydrase 2 (Homo sapiens, UniProt P00918); type: ADME
Description: Inhibition of human carbonic anhydrase 2 using 4-nitrophenyl acetate as substrate by spectrophotometry

[7] = target: Cyclin-dependent kinase 1/cyclin B1 (Homo sapiens, UniProt P06493); type: cell-based, Sf9
Chain of Cyclin-dependent kinase 1/cyclin B1 (P06493 whole entry): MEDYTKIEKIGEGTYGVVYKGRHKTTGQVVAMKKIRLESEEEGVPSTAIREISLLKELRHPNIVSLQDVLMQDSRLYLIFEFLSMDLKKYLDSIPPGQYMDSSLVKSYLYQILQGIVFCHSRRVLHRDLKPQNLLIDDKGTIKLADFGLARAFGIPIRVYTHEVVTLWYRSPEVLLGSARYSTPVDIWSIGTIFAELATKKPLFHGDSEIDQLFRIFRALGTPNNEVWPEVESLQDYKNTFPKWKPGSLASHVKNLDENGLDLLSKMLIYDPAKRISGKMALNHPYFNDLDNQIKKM
Chain of Cyclin-dependent kinase 1/cyclin B1 (P14635 whole entry, further chain): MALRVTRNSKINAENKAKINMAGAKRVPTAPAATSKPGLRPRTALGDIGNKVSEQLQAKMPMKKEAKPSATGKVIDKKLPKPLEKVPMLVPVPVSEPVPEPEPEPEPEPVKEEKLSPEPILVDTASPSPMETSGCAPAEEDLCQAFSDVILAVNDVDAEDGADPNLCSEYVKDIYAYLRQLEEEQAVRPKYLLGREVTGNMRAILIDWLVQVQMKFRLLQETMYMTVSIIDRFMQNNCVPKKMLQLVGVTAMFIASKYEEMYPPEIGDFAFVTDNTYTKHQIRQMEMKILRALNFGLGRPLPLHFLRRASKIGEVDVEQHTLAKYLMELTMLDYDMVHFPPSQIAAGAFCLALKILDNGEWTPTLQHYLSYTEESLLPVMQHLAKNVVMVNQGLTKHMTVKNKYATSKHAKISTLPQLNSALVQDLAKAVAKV

[8] = target: Vascular endothelial growth factor receptor 2 (Homo sapiens, UniProt P35968); type: cell-based, Sf9
Chain of Vascular endothelial growth factor receptor 2 (P35968 whole entry): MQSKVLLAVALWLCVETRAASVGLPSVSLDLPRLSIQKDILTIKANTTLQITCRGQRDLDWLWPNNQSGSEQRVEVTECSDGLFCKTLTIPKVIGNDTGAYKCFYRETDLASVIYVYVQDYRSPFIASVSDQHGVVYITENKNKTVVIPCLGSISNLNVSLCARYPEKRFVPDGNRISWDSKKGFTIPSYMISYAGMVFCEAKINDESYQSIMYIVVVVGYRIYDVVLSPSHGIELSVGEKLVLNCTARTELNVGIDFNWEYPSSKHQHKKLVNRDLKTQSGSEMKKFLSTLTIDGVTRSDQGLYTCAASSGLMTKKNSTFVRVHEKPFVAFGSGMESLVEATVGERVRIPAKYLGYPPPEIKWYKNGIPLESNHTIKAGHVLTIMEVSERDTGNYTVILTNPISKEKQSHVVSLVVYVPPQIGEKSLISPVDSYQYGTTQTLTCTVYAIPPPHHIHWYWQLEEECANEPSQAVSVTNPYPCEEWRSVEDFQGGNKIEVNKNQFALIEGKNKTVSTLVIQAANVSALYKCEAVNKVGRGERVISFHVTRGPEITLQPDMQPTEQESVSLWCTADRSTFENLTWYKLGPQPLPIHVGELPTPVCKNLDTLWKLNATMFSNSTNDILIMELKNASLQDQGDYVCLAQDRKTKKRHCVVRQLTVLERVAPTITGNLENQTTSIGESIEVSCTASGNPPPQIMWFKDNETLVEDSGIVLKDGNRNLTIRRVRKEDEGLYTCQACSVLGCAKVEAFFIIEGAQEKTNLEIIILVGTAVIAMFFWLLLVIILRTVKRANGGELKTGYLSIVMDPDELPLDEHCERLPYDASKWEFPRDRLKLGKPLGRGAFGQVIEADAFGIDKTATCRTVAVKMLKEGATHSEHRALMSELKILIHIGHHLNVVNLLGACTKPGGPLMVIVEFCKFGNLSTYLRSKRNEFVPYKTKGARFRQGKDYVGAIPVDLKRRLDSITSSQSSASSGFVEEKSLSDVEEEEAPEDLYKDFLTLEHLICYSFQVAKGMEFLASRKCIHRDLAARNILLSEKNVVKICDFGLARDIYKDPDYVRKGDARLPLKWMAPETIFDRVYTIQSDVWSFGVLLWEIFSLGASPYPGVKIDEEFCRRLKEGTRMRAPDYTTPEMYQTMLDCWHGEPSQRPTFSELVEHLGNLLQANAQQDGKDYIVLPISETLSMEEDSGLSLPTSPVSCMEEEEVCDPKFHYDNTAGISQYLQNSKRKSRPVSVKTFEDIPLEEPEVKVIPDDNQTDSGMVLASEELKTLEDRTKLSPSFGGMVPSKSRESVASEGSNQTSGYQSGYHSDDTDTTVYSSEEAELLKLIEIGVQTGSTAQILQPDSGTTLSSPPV

[9] = target: T2, Cyclin-dependent kinase 2/cyclin E1 (Homo sapiens, UniProt P24941); type: cell-based, Sf9
physchem [10] = conditions: buffer
Description: Thermodynamic solubility in water by equilibrium shake-flask method

[11] = human, hepatocytes, 1 µM
Description: Clearance in human hepatocytes at 1 uM measured after 2 to 90 mins by HPLC-based LCMS/MS analysis

[12] = rat, hepatocytes, 1 µM
Description: Clearance in rat hepatocytes at 1 uM measured after 2 to 90 mins by HPLC-based LCMS/MS analysis

Plasmodium falciparum [13] = assay: microbe, parasite or virus in culture; type: functional, organism-based; conditions: 3D7, Erythrocyte, 48 h
Description: Antiplasmodial activity against Plasmodium falciparum 3D7 infected in human erythrocytes incubated for 48 hrs by lactate dehydrogenase colorimetric enzyme assay

Plasmodium falciparum [14] = assay: microbe, parasite or virus in culture; type: functional, organism-based; conditions: 3D7
Description: Antiplasmodial activity against Plasmodium falciparum 3D7

Rattus norvegicus [15] = organism: Rattus norvegicus; assay: animal or person; type: functional; conditions: po, 0.5 h, time 30 min
Description: Antiallergic activity in po dosed rat model of IgE-mediated passive cutaneous anaphylaxis administered 30 mins prior to IgE challenge

Estrogen receptor = target: T3, Estrogen receptor (Homo sapiens, UniProt P03372)
T3 sequence (P03372 whole entry): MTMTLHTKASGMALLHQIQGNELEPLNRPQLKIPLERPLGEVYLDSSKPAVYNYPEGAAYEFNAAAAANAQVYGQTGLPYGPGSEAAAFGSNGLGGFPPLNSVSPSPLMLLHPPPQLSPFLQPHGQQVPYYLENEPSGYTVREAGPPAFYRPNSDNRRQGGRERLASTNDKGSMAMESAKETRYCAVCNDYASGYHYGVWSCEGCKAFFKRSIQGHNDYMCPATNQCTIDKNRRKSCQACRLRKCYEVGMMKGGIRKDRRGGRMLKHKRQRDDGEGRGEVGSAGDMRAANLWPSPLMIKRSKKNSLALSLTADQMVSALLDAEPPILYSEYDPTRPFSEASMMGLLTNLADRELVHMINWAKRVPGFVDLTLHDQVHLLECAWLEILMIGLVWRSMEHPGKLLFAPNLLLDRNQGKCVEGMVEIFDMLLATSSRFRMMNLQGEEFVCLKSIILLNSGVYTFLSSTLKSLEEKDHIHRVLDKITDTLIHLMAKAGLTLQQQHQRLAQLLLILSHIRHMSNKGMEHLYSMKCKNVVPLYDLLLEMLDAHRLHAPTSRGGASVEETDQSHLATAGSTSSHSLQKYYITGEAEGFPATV
Description: Inhibition of wild type ESR1 (unknown origin) by transactivation assay

A-375 = assay: cells; type: functional; conditions: Homo sapiens, time 72 hrs
Description: Antiproliferative activity against human A375 cells assessed as cell proliferation at 25 uM after 72 hrs by alamarBlue cell proliferation assay relative to control

Rattus norvegicus [16] = organism: Rattus norvegicus; assay: animal or person; type: functional; conditions: iv, 0.5 min, time 30 sec
Description: Antiallergic activity in iv dosed rat model of IgE-mediated passive cutaneous anaphylaxis administered 30 secs prior to IgE challenge

[17] = target: T2, Cyclin-dependent kinase 2/cyclin E1; type: cell-based, Sf9; remark: listed apart in the source
[18] = target: T4, 1,25-dihydroxyvitamin D(3) 24-hydroxylase, mitochondrial (Homo sapiens, UniProt Q07973); assay: biochemical; type: cell-based, V79
T4 sequence (Q07973 whole entry): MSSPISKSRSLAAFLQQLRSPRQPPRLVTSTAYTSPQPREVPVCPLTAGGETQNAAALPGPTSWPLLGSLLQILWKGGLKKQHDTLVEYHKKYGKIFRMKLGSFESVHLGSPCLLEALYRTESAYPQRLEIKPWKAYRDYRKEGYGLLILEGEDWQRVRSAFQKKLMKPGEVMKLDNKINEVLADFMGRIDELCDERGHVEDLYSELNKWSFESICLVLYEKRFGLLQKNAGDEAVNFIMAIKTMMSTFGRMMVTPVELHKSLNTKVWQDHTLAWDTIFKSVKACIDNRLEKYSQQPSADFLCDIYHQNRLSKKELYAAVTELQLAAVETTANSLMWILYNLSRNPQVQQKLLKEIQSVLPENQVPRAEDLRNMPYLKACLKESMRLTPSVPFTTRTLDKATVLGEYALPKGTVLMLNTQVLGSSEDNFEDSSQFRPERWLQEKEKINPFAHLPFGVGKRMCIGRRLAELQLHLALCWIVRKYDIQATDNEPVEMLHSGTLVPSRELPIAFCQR

Chain of Beta-secretase 1 (P56817 whole entry): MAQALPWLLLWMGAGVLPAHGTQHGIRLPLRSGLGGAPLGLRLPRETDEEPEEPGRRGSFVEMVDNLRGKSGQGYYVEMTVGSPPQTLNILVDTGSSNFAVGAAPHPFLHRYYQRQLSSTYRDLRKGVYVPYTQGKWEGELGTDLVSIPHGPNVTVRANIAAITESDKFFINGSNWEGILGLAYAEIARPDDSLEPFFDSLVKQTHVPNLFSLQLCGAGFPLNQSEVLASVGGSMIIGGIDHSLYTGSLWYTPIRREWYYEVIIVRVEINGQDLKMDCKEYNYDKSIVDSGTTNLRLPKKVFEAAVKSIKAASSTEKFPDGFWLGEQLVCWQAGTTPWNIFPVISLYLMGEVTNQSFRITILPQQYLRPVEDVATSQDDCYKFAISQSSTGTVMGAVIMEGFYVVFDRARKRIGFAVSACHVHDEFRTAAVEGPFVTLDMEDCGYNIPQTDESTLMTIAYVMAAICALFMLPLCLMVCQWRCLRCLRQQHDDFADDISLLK

SMILES: COc1cc(F)ccc1-c1ncnc(Nc2cccc(C[S@](C)(=N)=O)c2)n1 [ATUVECICLIB]
IC50 (HeLa): 1500 nM | solubility thermodynamic at 24 h (physchem [1]): 479 µg/mL (≈ 1240 µM)

Papp A→B at 2 h, 2 µM (in vitro [2]): 206 ×10⁻⁶ cm/s
SMILES: CCCc1nc(C)c2c(=O)[nH]c(-c3cc(S(=O)(=O)N4CCN(CC)CC4)ccc3OCC)nn12

IC50 (Beta-secretase 1): 0.99 nM
SMILES: Cc1cc(C#N)cnc1C(=O)Nc1ccc(F)c([C@]2(C)CS(=O)(=NCC(F)(F)F)N(C)C(N)=N2)c1 (single isomer, unassigned)

solubility thermodynamic at 24 h (physchem [3]): 91 µg/mL (≈ 216 µM)
SMILES: COc1cc(F)ccc1-c1nc(Nc2cc(F)cc(CS(C)(=N)=N)c2)ncc1F

IC50 (Dipeptidyl peptidase 4): 8.8 nM
SMILES: N[C@H]1C[C@@H](N2Cc3cn(S(=O)(=O)NC(=O)c4ccccc4)nc3C2)CO[C@@H]1c1cc(F)ccc1F

IC50 (Dipeptidyl peptidase 4): 18 nM
SMILES: CS(=O)(=NS(=O)(=O)c1ccccc1)n1cc2c(n1)CN([C@H]1CO[C@H](c3cc(F)ccc3F)[C@@H](N)C1)C2 (some centres not stated)

IC50 [4]: 0.025 nM | Papp A→B at 2 h, 2 µM (in vitro [2]): 0.71 ×10⁻⁶ cm/s | efflux ratio (in vitro [5]): 288
SMILES: CCCc1nc(C)c2c(=O)[nH]c(-c3cc(S(=O)(=O)N4CCS(=N)(=O)CC4)ccc3OCC)nn12

IC50 [6]: 3.2 nM
SMILES: CCc1ccc(N(CC(C)C)S(=O)(=O)c2ccc(OCC3CCOCC3)c(CO)c2)cc1 [GSK2981278]

SMILES: CCS(=N)(=O)c1ccc(Nc2ncc(Br)c(O[C@H](C)[C@@H](C)O)n2)cc1 (some centres not stated)
IC50 (MCF7): 44 nM | IC50 (Carbonic anhydrase 2): > 10000 nM | IC50 [7]: 2 nM | IC50 [8]: 32 nM | IC50 [9]: 3 nM

solubility thermodynamic (physchem [10]): 182 µg/mL (≈ 423 µM) | IC50 (Carbonic anhydrase 2): > 10000 nM | IC50 [8]: 163 nM
SMILES: C[C@@H](O)[C@@H](C)Oc1nc(Nc2ccc([S@](=N)(=O)C3CC3)cc2)ncc1C(F)(F)F

CLH [11]: 1 mL/min/kg | CLH [12]: 1 mL/min/kg
SMILES: N=S1(=O)CCC(NC(=O)c2n[nH]cc2NC(=O)c2c(Cl)cccc2Cl)CC1 (configuration not stated)

solubility thermodynamic at 24 h (physchem [1]): 11 µg/mL (≈ 28.2 µM)
SMILES: COc1cc(F)ccc1-c1ncnc(Nc2cccc(CS(N)(=O)=O)c2)n1

SMILES: CN=S1(=O)C[C@@H]2[C@@H](OCc3ccccc3)[C@H](OCc3ccccc3)[C@@H](COCc3ccccc3)O[C@@H]2c2cc(C(C)(C)C)ccc21 (some centres not stated)
IC50 (Plasmodium falciparum [13]): 900 nM

SMILES: CCCCCCCCCCCS(=O)(=NCc1cn(Cc2ccccc2)nn1)c1ccccc1 (configuration not stated)
IC50 (Plasmodium falciparum [14]): 6600 nM

SMILES: CCCCCCc1cc(S(C)(=N)=O)cc2c(=O)c3cc(C(=O)O)ccc3oc12 (configuration not stated) [SUDEXANOX]
ED50 (Rattus norvegicus [15]): 0.19 mg/kg

IC50 (Carbonic anhydrase 2): > 10000 nM
SMILES: C[C@@H](O)[C@@H](C)Oc1nc(Nc2ccc(S(C)(=O)=O)cc2)ncc1C(F)(F)F

IC50 (Estrogen receptor): 1.8 nM
SMILES: C[C@]12CC[C@@H]3c4ccc(O)cc4C[C@@H](CCCCCCCCC[S@@](=N)(=O)CCCC(F)(F)C(F)(F)F)[C@H]3[C@@H]1CC[C@@H]2O

IC50 (Beta-secretase 1): 0.59 nM
SMILES: CN=S1(=O)C[C@@](C)(c2cc(NC(=O)c3ncc(C#N)cc3C)ccc2F)N=C(N)N1CC(F)(F)F (single isomer, unassigned)

solubility thermodynamic (physchem [10]): 8 µg/mL | IC50 (Carbonic anhydrase 2): 514 nM | IC50 [8]: 34 nM
SMILES: C[C@H](CO)Nc1nc(Nc2ccc(S(N)(=O)=O)cc2)ncc1Br.Cl

SMILES: O=C(NS(=O)(=O)c1ccc(Br)s1)c1ccc(Cl)cc1Cl
growth at 25 µM (A-375): 25%

SMILES: CC(C)(C)c1ccc2c(c1)[C@H]1O[C@H](COCc3ccccc3)[C@@H](OCc3ccccc3)[C@H](OCc3ccccc3)[C@H]1C[S@@]2(=N)=O
IC50 (Plasmodium falciparum [13]): 800 nM

SMILES: O=C([O-])c1cc(=O)c2c(OCC(O)COc3cccc4oc(C(=O)[O-])cc(=O)c34)cccc2o1.[Na+].[Na+] [CROMOLYN SODIUM]
ED50 (Rattus norvegicus [16]): 1.21 mg/kg

IC50 (Beta-secretase 1): 2 nM
SMILES: C[C@@]1(c2cc(NC(=O)c3cnc(C#N)cn3)ccc2F)CS2(=O)=NCC(F)(F)CN2C(N)=N1 (single isomer, unassigned)

IC50 [17]: 2920 nM
SMILES: COc1cc(F)ccc1-c1cc(Nc2cc(C[S@@](C)(=N)=O)ccn2)ncc1F

SMILES: N=S(=O)(NC(=O)c1ccc(Cl)cc1Cl)c1ccc(Br)s1 (configuration not stated)
growth at 25 µM (A-375): 40%

IC50 [18]: 27 nM
SMILES: C=C1/C(=C\C=C2/CCC[C@]3(C)C([C@H](C)/C=C/S(=O)(=O)C(C)(C)C)=CC[C@@H]23)C[C@@H](O)C[C@@H]1O

IC50 (Beta-secretase 1): 28 nM
SMILES: N#Cc1ccc(C(=O)Nc2ccc(F)c([C@]3(CF)CS4(=O)=NCCCCN4C(N)=N3)c2)nc1 (single isomer, unassigned)

CLH [11]: 4 mL/min/kg | CLH [12]: 29.3 mL/min/kg
SMILES: O=C(NC1CCNCC1)c1n[nH]cc1NC(=O)c1c(Cl)cccc1Cl [AT-7519]

SMILES: CS(=N)(=O)c1ccc2oc3ccc(C(=O)O)cc3c(=O)c2c1 (configuration not stated)
ED50 (Rattus norvegicus [16]): 0.03 mg/kg
